Several values for one entry are separate records, joined by “and”; a condition that tells them apart may be missing. Equal values may be shown once.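 How tested: cells in 96-well plates exposed to compound for 48 hours at five concentrations. GI50 = concentration required for 50% inhibition of growth. Definition used: TGI = concentration required for complete inhibition of growth.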 Some results are limits rather than exact numbers.

One assay concerns HS 578T breast. As to the kind of experiment: NCI tumour cell line growth inhibition, 48 h.
With `COc1ccc([C@H]2[C@@H](F)C(=O)N2c2cc(OC)c(OC)c(OC)c2)cc1F`, the GI50 was 0.295 µM and the TGI is greater than 100 µM.
The corresponding values for `Cc1cc(I)cc(CN(C)CCCN2CCCCC2)c1O` are 9.75 µM and 75.6 µM.
Take `CN(C(=O)c1ccc(C(F)(F)F)cc1)c1ccc(Oc2ccc3c(c2)cc(C(=O)N2CCN(Cc4ccc(OC(F)F)cc4)CC2)n3C)nc1`: the GI50 was greater than 91.5 µM and the TGI was greater than 100 µM.
On to `CCCCCCCCC/C=C1\CCC(CN2CCOCC2)C1=O` (centres undefined), for which the TGI was determined as 5.47 µM.
Consider `O=S(=O)(CCn1c(Sc2ccccc2)c(Sc2ccccc2)c2ccccc21)c1ccccc1`, for which the TGI was greater than 100 µM.
Take `O=c1[nH]c(Nc2nc3ccccc3[nH]2)nc(O)c1-c1ccccc1`: the TGI was greater than 100 µM.
On the same count and under the same terms, then `Cc1ccccc1S(=O)(=O)OC1NS(=O)(=O)c2ccccc21` (centres undefined), with greater than 100 µM.
Take `O=C(/C=C/c1ccncc1)c1cc(Cl)ccc1O`: the GI50 is 39.5 µM and the TGI was greater than 100 µM.
Regarding `OCC#Cc1ccccc1C#Cc1ccccc1`, the GI50 was 18.3 µM and the TGI amounted to 43.7 µM.
With `CN(C)CCSC1=Nc2ccc(Cl)cc2C(c2ccccc2Cl)=NC1`, the TGI is 35.7 µM and > 100 µM.
In the case of `Cc1cc(-c2ccc3nc(C4CCOCC4)n(CCOC(F)(F)F)c3c2)cn(C)c1=O`, the TGI was determined as 0.888 µM.
In the case of `ClCc1cccc(Cn2cnc3ncnc(Cl)c32)c1`, the GI50 is 18.2 µM and the TGI was 42.3 µM.
As to `COc1cc2c3c(n(C)c(=O)c2cc1OC)-c1cc2c(cc1/C3=C\CCCN)OCO2`, the GI50 was 24.7 µM and the TGI was found to be 87.6 µM.
`OCCCCCNCc1cc2cc3c(cc2c2cc(OCc4ccccc4)ccc12)OCO3`: the GI50 was 1.79 µM and the TGI was determined as 3.56 µM.
The corresponding values for `COc1cc(/C=C2\CN(S(=O)(=O)c3ccccc3)C/C(=C\c3cc(CN4CCCC4)c(O)c(OC)c3)C2=O)cc(CN2CCCC2)c1O` are 2.52 µM and 7.22 µM.

The test system of a further assay is HL-60(TB) leukemia. Put plainly: NCI tumour cell line growth inhibition, 48 h.
The compound `CCOC(=O)c1cc2nc3ccccc3c(=O)n2c2ccccc12` showed a TGI greater than 10 µM.
On the same count and under the same terms, as for `COc1cc2c(c(OC)c1OC)-c1ccc(OC)c(=O)cc1C(NC(=O)c1ccc(N=[N+]=[N-])cc1)CC2` (centres undefined), the figure is 0.441 µM; as for `COc1c(Cl)c(=O)oc2ccc(Cl)cc12`, greater than 100 µM.
Turning to `NS(=O)(=O)c1cc(Br)c(N=Nc2ccc(O)c3ncccc23)c(Br)c1`, the TGI was determined as 29.4 µM.
For `COc1ccc([C@H]2[C@@H](F)C(=O)N2c2cc(OC)c(OC)c(OC)c2)cc1F`, the GI50 was 0.0805 µM and the TGI was 0.399 µM.
On to `Cc1cc(I)cc(CN(C)CCCN2CCCCC2)c1O`, for which the GI50 is 12.7 µM and the TGI amounted to 29.7 µM.
Turning to `CN(C(=O)c1ccc(C(F)(F)F)cc1)c1ccc(Oc2ccc3c(c2)cc(C(=O)N2CCN(Cc4ccc(OC(F)F)cc4)CC2)n3C)nc1`, the GI50 is less than 0.012 µM and the TGI is greater than 100 µM.
Compound `CCCCCCCCC/C=C1\CCC(CN2CCOCC2)C1=O` (centres undefined) yielded a TGI of 4.38 µM.
In the case of `O=S(=O)(CCn1c(Sc2ccccc2)c(Sc2ccccc2)c2ccccc21)c1ccccc1`, the TGI is greater than 100 µM.
The same measure, in the same setting: as for `CN(C)CCSC1=Nc2ccc(Cl)cc2C(c2ccccc2Cl)=NC1`, the figure is 66.5 µM and 80.4 µM.
Consider `Cc1cc(-c2ccc3nc(C4CCOCC4)n(CCOC(F)(F)F)c3c2)cn(C)c1=O`, for which the GI50 was 0.0247 µM and the TGI stood at 0.197 µM.
The corresponding values for `OCCCCCNCc1cc2cc3c(cc2c2cc(OCc4ccccc4)ccc12)OCO3` are 1.52 µM and 3.65 µM.
The corresponding values for `COc1cc(/C=C2\CN(S(=O)(=O)c3ccccc3)C/C(=C\c3cc(CN4CCCC4)c(O)c(OC)c3)C2=O)cc(CN2CCCC2)c1O` are 0.513 µM and 2.73 µM.

The test system of another assay is A498 renal. As to the kind of experiment: NCI tumour cell line growth inhibition, 48 h.
As for `CCOC(=O)c1cc2nc3ccccc3c(=O)n2c2ccccc12`, the TGI is greater than 10 µM.
For `COc1cc2c(c(OC)c1OC)-c1ccc(OC)c(=O)cc1C(NC(=O)c1ccc(N=[N+]=[N-])cc1)CC2` (centres undefined), the TGI is 0.0847 µM.
The same measure, in the same setting: as for `Cc1ccc(S(=O)(=O)Nc2ccccc2C(=O)c2ccc(C)c(C)c2)cc1`, the figure is greater than 100 µM; as for `COc1c(Cl)c(=O)oc2ccc(Cl)cc12`, greater than 100 µM; as for `NS(=O)(=O)c1cc(Br)c(N=Nc2ccc(O)c3ncccc23)c(Br)c1`, 67.9 µM.
As for `COc1ccc([C@H]2[C@@H](F)C(=O)N2c2cc(OC)c(OC)c(OC)c2)cc1F`, the GI50 was 0.847 µM and the TGI was 8.08 µM.
The corresponding values for `Cc1cc(I)cc(CN(C)CCCN2CCCCC2)c1O` are 19.8 µM and 38.3 µM.
Regarding `CN(C(=O)c1ccc(C(F)(F)F)cc1)c1ccc(Oc2ccc3c(c2)cc(C(=O)N2CCN(Cc4ccc(OC(F)F)cc4)CC2)n3C)nc1`, the GI50 was 0.729 µM and the TGI was greater than 100 µM.
Consider `CCCCCCCCC/C=C1\CCC(CN2CCOCC2)C1=O` (centres undefined), for which the TGI came to 24.5 µM.
Same read-out and setting: as for `O=S(=O)(CCn1c(Sc2ccccc2)c(Sc2ccccc2)c2ccccc21)c1ccccc1`, the figure is greater than 100 µM; as for `O=c1[nH]c(Nc2nc3ccccc3[nH]2)nc(O)c1-c1ccccc1`, greater than 100 µM; as for `Cc1ccccc1S(=O)(=O)OC1NS(=O)(=O)c2ccccc21` (centres undefined), greater than 100 µM.
For `O=C(/C=C/c1ccncc1)c1cc(Cl)ccc1O`, the GI50 was 6.96 µM and the TGI worked out at 21.8 µM.
Turning to `CN(C)CCSC1=Nc2ccc(Cl)cc2C(c2ccccc2Cl)=NC1`, the GI50 is 18.7 µM and > 100 µM; the TGI was 34.2 µM and > 100 µM.
Take `Cc1cc(-c2ccc3nc(C4CCOCC4)n(CCOC(F)(F)F)c3c2)cn(C)c1=O`: the TGI came out at 3.03 µM.
On to `ClCc1cccc(Cn2cnc3ncnc(Cl)c32)c1`, for which the GI50 is 18.4 µM and the TGI is 35.9 µM.
On to `COc1cc2c3c(n(C)c(=O)c2cc1OC)-c1cc2c(cc1/C3=C\CCCN)OCO2`, for which the GI50 was 2.49 µM and the TGI was 18.2 µM.
The corresponding values for `OCCCCCNCc1cc2cc3c(cc2c2cc(OCc4ccccc4)ccc12)OCO3` are 3.57 µM and 14.2 µM.

These data come from PubChem BioAssay (NCI).
